The record followed here is patent publication EP0960190B1, “IMI[…] RESISTANT SUGAR BEET PLANTS” (Michigan State University, priority 1996, dated 1998).

The test system of one assay is 93R30B. Put plainly: Shoot culture herbicide resistance (shoot injury and fresh weight on M20 media). In kind it is cell-based, Beta vulgaris L. The protocol:
(§1) In step 7, shoot cultures were assessed for herbicide resistance by placing three small, consistently sized shoot cuttings on each plate of M20 media supplemented with logarithmically increasing concentrations of imidazolinone herbicide, sulfonylurea or triazolopyrimidine sulfonanilide ranging from 1 nM to 0.1 mM. 93R30 culture responses were compared to that of shoot cultures of a sensitive control (Rel-1) and a chlorsulfuron resistant, imidazolinone sensitive control (EL-49). Shoot cultures were maintained at 20 µE/m^2 s light intensity at 25°C for 3 weeks. Shoot culture was determined by rating shoot injury and fresh weight 3 weeks after transfer to selective media. Magnitude of herbicide resistance was determined by the ratio of resistant to sensitive I50 values (the herbicide concentration causing 50 percent injury).

A further assay concerns EL-49. The description is as above. In kind it is cell-based, Beta vulgaris L. The protocol: as §1
For a further assay, the system named is Rel-1. The assay is described as above. In kind it is cell-based, Beta vulgaris L. Particulars: Beta vulgaris, 504 h; Rel-1 sensitive control; herbicide concentration causing 50% injury to the shoot culture, 3 weeks; read-out: I50. On the procedure: as §1
A further assay concerns ALS enzyme from Sir-13. Description: ALS enzyme activity assay in leaf extracts (acetoin colorimetry). In kind it is biochemical, Beta vulgaris L. Particulars: Sir-13 single mutant ALS enzyme in vitro.
The test system of another assay is sensitive cells. Put plainly: Cell selection on herbicide-supplemented solid B1 media. In kind it is cell-based, Beta vulgaris L. Particulars: 50 nM in solid B1 media, 8-12 weeks, dim fluorescent light. From the text: Rel-1 (Regenerating East Lansing-1) is a highly regenerable male fertile sugar beet line used for initial cell selection for herbicide-resistant mutant to the sulfonylureas and is used as a sensitive control for most experiments. CR1-B This sugar beet isolate was developed by plating Rel-1 cells on chlorsulfuron-containing media. This variant is sulfonylurea resistant with modest resistance to the triazolopyrimidine herbicide, flumetsulam, but no imidazolinone resistance. This variant has been described by Saunders et al. (Crop Sci. 32:1357-1360) and Hart et al. (Weed Sci. 40:378-383 and 41:317-324). The SU resistance gene has been labeled Sur. 93R30B This isolate was developed by plating cells of a highly regenerable, Sur homozygous sugar beet plant (descendant of CR1-B) on media containing imazethapyr. EL-49 East Lansing 49, released by the USDA in 1993. Sugar beet line homozygous for the Sur gene, used for a sulfonylurea-resistant, imazethapyr- sensitive control. • a. Plants were selected as source materials for somaclonal selection based on their ability to generate callus under high cytokinin conditions (in B1 media) and regenerate shoots from callus. […]

As to `CCc1cnc(C2=NC(C)(C(C)C)C(=O)N2)c(C(=O)O)c1` (stereo not drawn) [Imazethapyr], the level of resistance is on record as 3600 fold in the assay with 93R30B (93R30B in shoot culture, 30240 min) and 3 fold in the assay on EL-49 (EL-49 in shoot culture, 30240 min). In addition, the R/S is reported as 3600X in the assay on 93R30B (93R30B, ratio of resistant to sensitive control (Rel-1) I50 values, shoot culture, 30240 min) and 3X in the assay on EL-49 (EL-49, ratio of resistant to sensitive control (Rel-1) I50 values, shoot culture, 30240 min). Further, the IC50 in the assay with 93R30B (Beta vulgaris, 504 h, 93R30B, herbicide concentration causing 50% injury to the shoot culture, 3 weeks, read-out: I50) amounted to 64 µM; in the assay with EL-49 (Beta vulgaris, 504 h, EL-49, herbicide concentration causing 50% injury to the shoot culture, 3 weeks, read-out: I50), 0.053 µM; in the assay on Rel-1 it was 0.018 µM. In the assay with ALS enzyme from Sir-13, the “resistance of the ALS enzyme” value was determined as 40 X. Also, the cell survival result in the assay with sensitive cells is recorded as “all sensitive cells died”.
